Source: US7745639B2, “Mitotic kinesin inhibitors” (Merck & Co., Inc., priority 2002, dated 2010)

target: T1, human KSP motor domain (KSP(367H)) (Homo sapiens, UniProt P52732); experiment: Kinesin ATPase in vitro assay; type: biochemical; settings: not given
T1 construct: were used to amplify the motor domain and the neck linker region; made in house; host or cells: E. coli BL21 (DE3), vector pRSETa
T1 sequence (P52732 18-359 limits assumed): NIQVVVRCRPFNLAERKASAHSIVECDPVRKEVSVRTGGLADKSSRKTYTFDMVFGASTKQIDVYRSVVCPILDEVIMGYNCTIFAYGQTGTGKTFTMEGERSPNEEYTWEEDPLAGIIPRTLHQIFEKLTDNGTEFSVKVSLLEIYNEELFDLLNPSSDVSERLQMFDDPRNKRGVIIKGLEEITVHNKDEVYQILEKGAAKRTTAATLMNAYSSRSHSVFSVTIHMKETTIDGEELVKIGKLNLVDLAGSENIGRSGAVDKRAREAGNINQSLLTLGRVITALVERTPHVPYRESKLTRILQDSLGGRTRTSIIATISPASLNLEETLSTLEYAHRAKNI
From the text: I. Kinesin ATPase In Vitro Assay
Cloning and Expression of Human Poly-Histidine Tagged KSP Motor Domain (KSP(367H))
Plasmids for the expression of the human KSP motor domain construct were cloned by PCR using a pBluescript full length human KSP construct (Blangy et al., Cell, vol.83, pp 1159-1169, 1995) as a template. The N-terminal primer 5′-[…] (SEQ.ID.NO.: 1) and the C-terminal primer 5′-[…] (SEQ.ID.NO.: 2) were used to amplify the motor domain and the neck linker region. The PCR products were digested with AseI and XhoI, ligated into the NdeI/XhoI digestion product of pRSETa (Invitrogen) and transformed into E. coli BL21 (DE3).
Cells were grown at 37° C. to an OD600 of 0.5. After cooling the culture to room temperature expression of KSP was induced with 100 μM IPTG and incubation was continued overnight. Cells were pelleted by centrifugation and washed once with ice-cold PBS. Pellets were flash-frozen and stored −80° C.
Cell pellets were thawed on ice and resuspended in lysis buffer (50 mM K-HEPES, pH 8.0, 250 mM KCl, 0.1% Tween, 10 mM imidazole, 0.5 mM Mg-ATP, 1 mM PMSF, 2 mM benzimidine, 1× complete protease inhibitor cocktail (Roche)). Cell suspensions were incubated with 1 mg/ml lysozyme and 5 mM β-mercaptoethanol on ice for 10 minutes, followed by sonication (3×30 sec). All subsequent procedures were performed at 4° C. Lysates were centrifuged at 40,000×g for 40 minutes. Supernatants were diluted and loaded onto an SP Sepharose column (Pharmacia, 5 ml cartridge) in buffer A (50 mM K-HEPES, pH 6.8, 1 mM MgCl2, 1 mM EGTA, […], 1 mM DTT) and eluted with a 0 to 750 mM KCl gradient in buffer A. Fractions containing KSP were pooled and incubated with Ni-NTA resin (Qiagen) for one hour. The resin was washed three times with buffer B (Lysis buffer minus PMSF and protease inhibitor cocktail), followed by three 15-minute incubations and washes with buffer B. Finally, the resin was incubated and washed for 15 minutes three times with buffer C (same as buffer B except for pH 6.0) and poured into a column. KSP was eluted with elution buffer (identical to buffer B except for 150 mM KCl and 250 mM imidazole). KSP-containing fractions were pooled, made 10% in sucrose, and stored at −80° C.
Microtubules are prepared from tubulin isolated from bovine brain. Purified tubulin (>97% MAP-free) at 1 mg/ml is polymerized at 37° C. in the presence of 10 μM paclitaxel, 1 mM DTT, 1 mM GTP in BRB80 buffer (80 mM K-PIPES, 1 mM EGTA, 1 mM MgCl2 at pH 6.8). The resulting microtubules are separated from non-polymerized tubulin by ultracentrifugation and removal of the supernatant. The pellet, containing the microtubules, is gently resuspended in 10 μM paclitaxel, 1 mM DTT, 50 μg/ml ampicillin, and 5 μg/ml chloramphenicol in BRB80.
The kinesin motor domain is incubated with microtubules, 1 mM ATP (1:1 MgCl2: Na-ATP), and compound at 23° C. in buffer containing 80 mM K-HEPES (pH 7.0), 1 mM EGTA, 1 mM DTT, 1 mM MgCl2, and 50 mM KCl. The reaction is terminated by a 2-10 fold dilution with a final buffer composition of 80 mM HEPES and 50 mM EDTA. Free phosphate from the ATP hydrolysis reaction is measured via a quinaldine red/ammonium molybdate assay by adding 150 μl of quench C buffer containing a 2:1 ratio of quench A:quench B. Quench A contains 0.1 mg/ml quinaldine red and 0.14% polyvinyl alcohol; quench B contains 12.3 mM ammonium molybdate tetrahydrate in 1.15 M sulfuric acid. The reaction is incubated for 10 minutes at 23° C., and the absorbance of the phospho-molybdate complex is measured at 540 nm.

SMILES | IC50 [µM]
CC(=O)N1N=C(c2ccccc2Cl)CC1c1cccc(O)c1 (stereo not drawn) [Compound 1-7, 3-[1-acetyl-3-(2-chlorophenyl)-4,5-dihydro-1H-pyrazol-5-yl]phenyl] | ≤ 50

same assay, conditions: kinesin motor domain incubated with microtubules, 1 mM ATP and compound at 23° C.; free phosphate by quinaldine red/ammonium molybdate, 540 nm; read-out: IC50

SMILES | IC50 [µM]
CC(=O)N1N=C(c2cc(F)ccc2F)CC1c1cccc(O)c1 (racemic) [Compound 4-5, 3-[1-acetyl-3-(2,5-difluorophenyl)-4,5-dihydro-1H-pyrazol-5-yl]phenyl] | ≤ 50
CC(C)C(=O)N1N=C(c2ccccc2Cl)CC1c1cccc(O)c1 (stereo not drawn) [Compound 2-1, 3-[3-(2-chlorophenyl)-1-isobutyryl-4,5-dihydro-1H-pyrazol-5-yl]phenyl] | ≤ 50
CC(=O)N1N=C(c2ccccc2Cl)CC1(C)c1cccc(O)c1 (stereo not drawn) [Compound 3-3, 3-[1-acetyl-3-(2-chlorophenyl)-5-methyl-4,5-dihydro-1H-pyrazol-5-yl]phenyl] | ≤ 50
O=C(N1CCNCC1)N1N=C(c2cc(F)ccc2F)CC1c1ccccc1 (stereo not drawn) [Compound 5-6, 1-{[3-(2,5-difluorophenyl)-5-phenyl-4,5-dihydro-1H-pyrazol-1-yl]carbonyl}piperazine] | ≤ 50
CN1N=C(c2cc(F)ccc2F)CC1(C)c1ccccc1 (stereo not drawn) [Compound 6-2, 3-(2,5-difluorophenyl)-1,5-dimethyl-5-phenyl-4,5-dihydro-1H-pyrazole] | ≤ 50

Now from value to compound:

IC50 [µM] | SMILES
≤ 50 | CC(=O)N1N=C(c2cc(F)ccc2F)C(C)C1c1ccccc1 (single isomer, unassigned) [Compound 12-2, 1-acetyl-3-(2,5-difluorophenyl)-4-methyl-5-phenyl-4,5-dihydro-1H-pyrazole]
≤ 50 | NCCCC1(c2ccccc2)CC(c2cc(F)ccc2F)=NN1C(=O)N1CCOCC1 (stereo not drawn) [Compound 7-7, 3-[3-(2,5-difluorophenyl)-1-(morpholin-4-ylcarbonyl)-5-phenyl-4,5-dihydro-1H-pyrazol-5-yl]propan-1-amine]
≤ 50 | CS(=O)(=O)N1N=C(c2cc(F)ccc2F)CC1c1ccccc1 (stereo not drawn) [Compound 8-1, 3-(2,5-difluorophenyl)-1-(methylsulfonyl)-5-phenyl-4,5-dihydro-1H-pyrazole]
≤ 50 | CCNC(=O)N1N=C(c2cc(F)ccc2F)CC1(CCCN(C)C)c1ccccc1 (stereo not drawn) [Compound 9-2, 3-(2,5-difluorophenyl)-5-[3-(dimethylamino)propyl]-N-ethyl-5-phenyl-4,5-dihydro-1H-pyrazole-1-carboxamide]
≤ 50 | CCNC(=O)N1N=C(c2cc(F)ccc2F)CC1(CCCNC(=O)c1ncc[nH]1)c1ccccc1 (stereo not drawn) [Compound 10-2, 3-(2,5-difluorophenyl)-N-ethyl-5-{3-[(1H-imidazol-2-ylcarbonyl)amino]propyl}-5-phenyl-4,5-dihydro-1H-pyrazole-1-carboxamide]
≤ 50 | CN(C)C(=O)N1N=C(c2cc(F)ccc2F)CC1(CCC(N)c1ccccc1)c1ccccc1 (stereo not drawn) [Compound 11-2, 5-(3-amino-3-phenylpropyl)-3-(2,5-difluorophenyl)-N,N-dimethyl-5-phenyl-4,5 dihydro-1H-pyrazole-1-carboxamide]
